From BindingDB's records for patent US10035761 (Revivia Pharmaceuticals, Inc., 2018)

Columns and labels:
[1] = biological target: Sodium-dependent serotonin transporter (Homo sapiens, UniProt P31645); assay: In Vitro Pharmacology Assay
Experimental: (§1) The monoamine transporters inhibitory activities of selected cycloalkylmethylamines of Formula (I) are reported herein. The compounds were evaluated using well established radioligand binding assays protocols (Galli, A. et al., J. Exp. Biol. 1995, 198, 2197-2212; Giros, B. et al., Trends Pharmcol. Sci. 1993, 14, 43-49; Gu, H. et al., J. Biol. Chem. 1994, 269(10), 7124-7130; Shearman, L. P. et al, Am. J. Physiol., 1998, 275(6 Pt 1), C1621-1629; Wolf, W. A. et al., J. Biol. Chem. 1992, 267(29), 20820-20825). The human recombinant transporter proteins dopamine (DAT), norepinephrine (NET) and serotonin (SERT) were selected for the in vitro assays. The radioligand binding assays were carried out at 11 different test concentrations 0.1 nM to 1 μM.

[2] = biological target: Sodium-dependent noradrenaline transporter (Homo sapiens, UniProt P23975); assay: In Vitro Pharmacology Assay
Chain of Sodium-dependent noradrenaline transporter (P23975 whole entry): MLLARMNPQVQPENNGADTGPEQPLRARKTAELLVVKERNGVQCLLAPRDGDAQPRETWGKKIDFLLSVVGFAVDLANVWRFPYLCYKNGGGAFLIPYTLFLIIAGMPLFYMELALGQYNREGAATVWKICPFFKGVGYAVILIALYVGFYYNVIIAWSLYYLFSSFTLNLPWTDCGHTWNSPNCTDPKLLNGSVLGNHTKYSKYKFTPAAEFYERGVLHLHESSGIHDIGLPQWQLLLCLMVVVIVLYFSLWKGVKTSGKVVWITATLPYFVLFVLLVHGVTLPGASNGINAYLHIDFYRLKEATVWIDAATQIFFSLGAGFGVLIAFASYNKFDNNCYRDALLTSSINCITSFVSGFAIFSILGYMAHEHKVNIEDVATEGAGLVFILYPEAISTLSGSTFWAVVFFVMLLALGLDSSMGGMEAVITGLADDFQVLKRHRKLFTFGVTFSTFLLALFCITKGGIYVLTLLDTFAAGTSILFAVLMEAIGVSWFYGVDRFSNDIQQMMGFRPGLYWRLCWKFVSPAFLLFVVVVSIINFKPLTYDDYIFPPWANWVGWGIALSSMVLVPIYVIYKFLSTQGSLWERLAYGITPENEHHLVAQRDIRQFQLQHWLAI
Experimental: as §1

Chain of Sodium-dependent serotonin transporter (P31645 whole entry): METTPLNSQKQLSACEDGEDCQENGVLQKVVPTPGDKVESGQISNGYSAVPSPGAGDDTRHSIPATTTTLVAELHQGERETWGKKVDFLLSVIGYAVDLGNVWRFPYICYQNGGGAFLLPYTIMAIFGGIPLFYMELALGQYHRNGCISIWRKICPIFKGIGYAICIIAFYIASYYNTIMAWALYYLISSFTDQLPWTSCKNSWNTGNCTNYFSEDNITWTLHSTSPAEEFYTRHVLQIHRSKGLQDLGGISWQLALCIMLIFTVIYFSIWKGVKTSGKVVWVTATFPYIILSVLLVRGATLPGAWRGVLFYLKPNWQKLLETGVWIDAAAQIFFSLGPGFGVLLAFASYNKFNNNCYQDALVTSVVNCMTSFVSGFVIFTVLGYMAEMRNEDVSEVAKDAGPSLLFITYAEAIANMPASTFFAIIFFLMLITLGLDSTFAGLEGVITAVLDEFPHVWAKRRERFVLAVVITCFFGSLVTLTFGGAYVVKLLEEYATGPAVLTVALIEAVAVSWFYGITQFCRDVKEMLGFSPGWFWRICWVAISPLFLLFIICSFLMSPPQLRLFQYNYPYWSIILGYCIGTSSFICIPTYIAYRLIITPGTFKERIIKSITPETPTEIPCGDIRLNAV

## CCSCCNC(CC(C)C)C1(c2ccc(Cl)c(Cl)c2)CCC1 (configuration not stated) [US10035761, Compound 13f]
[1]
  Ki: 224 nM
[2]
  Ki: 119 nM
